In paper PMC9838390, “Discovery and biosynthesis of karnamicins as angiotensin converting enzyme inhibitors” (Nature Communications, 2023):
Where “and” joins values, the source holds several entries; their conditions need not be identical. Equal entries are not always repeated.

Key:
[1] = system: KnmB1; assay: NADPH oxidation of KnmB1 and variants (340 nm); format: biochemical, L. rhizosphaerae NEAU-A2
Method: Hydrogen peroxide formation assay and NADPH oxidation […]
NADPH detection was carried out in the cuvette by NanoDrop 2000c (Fisher Scientific). NADPH signal at 340 nm was monitored in time using 6220 M–1 cm–1 as […]
(§1) Spectral data for new compounds […]
Reaction conditions: 50 mM Tris-HCl buffer (pH 7.5), 0.15 mM NADPH, and 2 μM KnmB1 or KnmB2. (e) NADPH oxidation of KnmB1 and variants. (f) NADPH oxidation of KnmB1 in the presence 24/32/36. (g) NADPH oxidation of KnmB1 and variants in the presence 24. Reaction conditions (e-g) for KnmB1 and their variants: 50 mM Tris-HCl buffer (pH 7.5), 0.15 mM NADPH, and 6 μM KnmB1 or variants, or 0.1 mM substrate 24/32/36. […]
2 μM KnmB2 or variants, or 0.1 mM substrate 24/32. […]
Source data are provided as a Source Data file. […]

[2] = system: KnmB2; assay: Hydrogen peroxide formation assay of KnmB2 and variants; format: biochemical, L. rhizosphaerae NEAU-A2
Method: Hydrogen peroxide formation assay and NADPH oxidation
The hydrogen peroxide formed from KnmB1, KnmB2 and their variants were measured using the Hydrogen Peroxide Assay Kit (Beyotime Industrial Co. Ltd, Shanghai, China)4-5. 5–100 µL of enzyme reaction mixture was added to 100 µL of working reagent (S0038-1). The mixture was incubated for 30 min at 25 °C, at which time the absorbance at 560 nm was measured by NanoDrop 2000c (Fisher Scientific). […]
as §1
Supplementary Figure 131. H2O2 generation and NADPH oxidation for KnmB2, KnmB1 and their variants. (a) Hydrogen peroxide formation of KnmB2 and variants. […]
(1 picture or pasted object on this page, not shown here) […]
H2O2 generation for KnmB2 and variants in the presence 24 or 32. Reaction conditions (h-j) for KnmB2 and their variants: 50 mM Tris-HCl buffer (pH 7.5), 0.15 mM NADPH, 2 μM KnmB2 or variants, or 0.1 mM substrate 24/32. Values are the means ± SD of n = 3 independent experiments, except for KnmB2+24 (T = 40 min), KnmB2-N219D+24 (T = 4 min), KnmB2-Y215F+24 (T= 1 min and 3 min) in i and j, and KnmB2+32 (T= 8 min) in j (n = 2). Source data are provided as a Source Data file. […]

CC(C)CCCCc1nc(-c2cc(O)cc(C(N)=O)n2)cs1 [Compound 24]
effector action on reduction of flavin in KnmB1 by NADPH ([1]; 0.15 mM NADPH, 6 μM KnmB1, 0.1 mM compound (Fig. S131f)): could act as a non-substrate effector
NADPH oxidation of KnmB1 in the presence of compound (replicates 1, 2, 3) ([1]; Time 0): 0.0000 µM
NADPH oxidation of KnmB1 in the presence of compound, average value ([1]; Time 0): 0.0000 µM
NADPH oxidation of KnmB1 in the presence of compound (replicates 1, 2, 3) ([1]; Time 1): 2.9582 µM and 2.2830 µM and 2.5080 µM
NADPH oxidation of KnmB1 in the presence of compound, average value ([1]; Time 1): 2.5831 µM
NADPH oxidation of KnmB1 in the presence of compound (replicates 1, 2, 3) ([1]; Time 2): 6.8489 µM and 4.6945 µM and 5.9164 µM
NADPH oxidation of KnmB1 in the presence of compound, average value ([1]; Time 2): 5.8199 µM
NADPH oxidation of KnmB1 in the presence of compound (replicates 1, 2, 3) ([1]; Time 3): 8.2797 µM and 6.4309 µM and 6.4630 µM
NADPH oxidation of KnmB1 in the presence of compound, average value ([1]; Time 3): 7.0579 µM
NADPH oxidation of KnmB1 in the presence of compound (replicates 1, 2, 3) ([1]; Time 4): 9.7106 µM and 8.7942 µM and 8.6174 µM
NADPH oxidation of KnmB1 in the presence of compound, average value ([1]; Time 4): 9.0407 µM
NADPH oxidation of KnmB1 in the presence of compound (replicates 1, 2, 3) ([1]; Time 5): 11.9293 µM and 10.4662 µM and 10.1447 µM
NADPH oxidation of KnmB1 in the presence of compound, average value ([1]; Time 5): 10.8467 µM
NADPH oxidation of KnmB1 in the presence of compound (replicates 1, 2, 3) ([1]; Time 8): 16.3826 µM and 16.8650 µM and 14.9839 µM
NADPH oxidation of KnmB1 in the presence of compound, average value ([1]; Time 8): 16.0772 µM
NADPH oxidation of KnmB1 in the presence of compound (replicates 1, 2, 3) ([1]; Time 10): 19.9679 µM and 20.5788 µM and 17.6688 µM
NADPH oxidation of KnmB1 in the presence of compound, average value ([1]; Time 10): 19.4051 µM
NADPH oxidation of KnmB1 in the presence of compound (replicates 1, 2, 3) ([1]; Time 15): 26.9614 µM and 30.3537 µM and 23.0064 µM
NADPH oxidation of KnmB1 in the presence of compound, average value ([1]; Time 15): 26.7739 µM
NADPH oxidation of KnmB1 in the presence of compound (replicates 1, 2, 3) ([1]; Time 20): 35.3859 µM and 38.9550 µM and 30.1286 µM
NADPH oxidation of KnmB1 in the presence of compound, average value ([1]; Time 20): 34.8232 µM
NADPH oxidation of KnmB1 in the presence of compound (replicates 1, 2, 3) ([1]; Time 30): 48.2476 µM and 54.0515 µM and 41.3344 µM
NADPH oxidation of KnmB1 in the presence of compound, average value ([1]; Time 30): 47.8778 µM
NADPH oxidation of KnmB1 in the presence of compound (replicates 1, 2, 3) ([1]; Time 40): 59.6785 µM and 66.9936 µM and 50.7878 µM
NADPH oxidation of KnmB1 in the presence of compound, average value ([1]; Time 40): 59.1533 µM
NADPH oxidation of KnmB1 in the presence of compound (replicates 1, 2, 3) ([1]; Time 60): 78.3119 µM and 86.3505 µM and 66.4309 µM
NADPH oxidation of KnmB1 in the presence of compound, average value ([1]; Time 60): 77.0311 µM
hydrogen peroxide formation of KnmB2 (absorbance UV λ=560 nm), average value ([2]; Fig. S131a, 1 mM NADPH, 16 μM KnmB2, 0.1 mM compound, 30 °C, 3 h, average of 3): 0.5988
H2O2 generation, average value ([2]; KnmB2+24, Time 0): 0.0000 µM
H2O2 generation, average value ([2]; KnmB2+24, Time 1): 7.6218 µM
H2O2 generation, average value ([2]; KnmB2+24, Time 2): 12.4635 µM
H2O2 generation, average value ([2]; KnmB2+24, Time 3): 16.9204 µM
H2O2 generation, average value ([2]; KnmB2+24, Time 4): 22.1791 µM
H2O2 generation, average value ([2]; KnmB2+24, Time 5): 26.8239 µM
H2O2 generation, average value ([2]; KnmB2+24, Time 8): 38.8438 µM
H2O2 generation, average value ([2]; KnmB2+24, Time 10): 44.6588 µM
H2O2 generation, average value ([2]; KnmB2+24, Time 15): 53.6376 µM
H2O2 generation, average value ([2]; KnmB2+24, Time 20): 56.0339 µM
H2O2 generation, average value ([2]; KnmB2+24, Time 30): 65.5374 µM
H2O2 generation, average value ([2]; KnmB2+24, Time 40): 57.4770 µM
H2O2 generation, average value ([2]; KnmB2+24, Time 60): 60.9452 µM
H2O2 generation, average value ([2]; KnmB2-N219D+24, Time 0): 0.0000 µM
H2O2 generation, average value ([2]; KnmB2-N219D+24, Time 2): 1.0964 µM
H2O2 generation, average value ([2]; KnmB2-N219D+24, Time 4): 1.8460 µM
H2O2 generation, average value ([2]; KnmB2-N219D+24, Time 5): 1.9569 µM
H2O2 generation, average value ([2]; KnmB2-N219D+24, Time 8): 2.8926 µM
H2O2 generation, average value ([2]; KnmB2-N219D+24, Time 10): 3.8614 µM
H2O2 generation, average value ([2]; KnmB2-N219D+24, Time 15): 5.8462 µM
H2O2 generation, average value ([2]; KnmB2-N219D+24, Time 20): 7.3014 µM
H2O2 generation, average value ([2]; KnmB2-N219D+24, Time 30): 11.0201 µM
H2O2 generation, average value ([2]; KnmB2-N219D+24, Time 40): 14.2037 µM
H2O2 generation, average value ([2]; KnmB2-N219D+24, Time 60): 17.9462 µM
H2O2 generation, average value ([2]; KnmB2-Y215F+24, Time 0): 0.0000 µM
H2O2 generation, average value ([2]; KnmB2-Y215F+24, Time 1): 2.6203 µM
H2O2 generation, average value ([2]; KnmB2-Y215F+24, Time 2): 4.3765 µM
H2O2 generation, average value ([2]; KnmB2-Y215F+24, Time 3): 4.8322 µM
H2O2 generation, average value ([2]; KnmB2-Y215F+24, Time 4): 7.3420 µM
H2O2 generation, average value ([2]; KnmB2-Y215F+24, Time 5): 8.5825 µM
H2O2 generation, average value ([2]; KnmB2-Y215F+24, Time 8): 12.4110 µM
H2O2 generation, average value ([2]; KnmB2-Y215F+24, Time 10): 14.9169 µM
H2O2 generation, average value ([2]; KnmB2-Y215F+24, Time 15): 20.6983 µM
H2O2 generation, average value ([2]; KnmB2-Y215F+24, Time 20): 27.2428 µM
H2O2 generation, average value ([2]; KnmB2-Y215F+24, Time 30): 36.5225 µM
H2O2 generation, average value ([2]; KnmB2-Y215F+24, Time 40): 40.7285 µM
H2O2 generation, average value ([2]; KnmB2-Y215F+24, Time 60): 52.7400 µM
